Test results published in article PMC13083723 (Patterns, 2026).
Structures can show the parent of a compound that is named as a salt. Where two headings read alike, the source gives them in different places.

How the values were obtained:
Vero-E6 cells = assay: cells; assay type: cell-based
SARS-CoV-2 [1] = conditions: cited from earlier work; for CaCo2 CPE inhibition %: Caco-2, 20 µM
SARS-CoV-2 [2] = conditions: cited from earlier work; for Vero-E6 CPE inhibition %: 10 µM
A549-ACE2 cells = assay: cells; assay type: cell-based; conditions: A549-ACE2, 24 h, read-out: PLD_Effect(%) A549-ACE2
[3] = cited from earlier work; for IC50: read-out: IC50 (value); for pchembl_value (IC50): value is the negative log10 of mol/L
[4] = Chlorocebus sabaeus, Vero C1008, 24 h; read-out: PLD Effect in % 5 µM
[5] = Chlorocebus sabaeus, Vero C1008, 24 h; read-out: PLD Effect in % 10 µM
[6] = Chlorocebus sabaeus, Vero C1008, 24 h; read-out: PLD Effect in % 20 µM
[7] = Chlorocebus sabaeus, Vero C1008; read-out: PLD EC50
[8] = Chlorocebus sabaeus, Vero C1008, read-out: PLD EC50 µM
[9] = Chlorocebus sabaeus, Vero C1008, 24 h, read-out: PLD_Effect(%) VERO-E6
[10] = Chlorocebus sabaeus, Vero C1008, 24 h, read-out: PLD Effect in % 5 µM
[11] = Chlorocebus sabaeus, Vero C1008, 24 h, read-out: PLD Effect in % 10 µM
[12] = Chlorocebus sabaeus, Vero C1008, 24 h, read-out: PLD Effect in % 20 µM

Question: For `CNCc1ccc(C)c(NC(=O)c2ccc(Nc3nc(-c4ccccc4)c4ccccc4n3)cc2)c1` [BMS-833923 (XL139), reference compound], which activation at 5 µM (Vero-E6 cells; [4]) is on record?
Answer: 72.2%

Question: What about the activation at 10 µM (Vero-E6 cells; [5]) of the same compound?
Answer: 59.1%

Question: What about the activation at 20 µM (Vero-E6 cells; [6]) of the same compound?
Answer: -39.6%

Question: And the EC50 (Vero-E6 cells; [7])?
Answer: 1.11 µM

Question: And the “CaCo2 CPE inhibition %” value (SARS-CoV-2 [1])?
Answer: 68.77%

Question: What about the “Vero-E6 CPE inhibition %” value (SARS-CoV-2 [2]) of the same compound?
Answer: -0.37

Question: Which “PLD Effect in % 5 µM” value (Vero-E6 cells; 5 µM) does the source give for `CCN(CC)CCCCNc1ncc2cc(-c3c(Cl)cccc3Cl)c(NC(=O)NC(C)(C)C)nc2n1` [PD-161570, reference compound] here?
Answer: 163.59%

Question: What about the “PLD Effect in % 10 µM” value (Vero-E6 cells; 10 µM) of the same compound?
Answer: 118.17%

Question: And the “PLD Effect in % 20 µM” value (Vero-E6 cells; 20 µM)?
Answer: 36.18%

Question: And the EC50 (Vero-E6 cells; read-out: PLD EC50)?
Answer: 0.63 µM

Question: What about the “CaCo2 CPE inhibition %” value (SARS-CoV-2 [1]) of the same compound?
Answer: 108.10%

Question: And the “Vero-E6 CPE inhibition %” value (SARS-CoV-2 [2])?
Answer: 12.35%

Question: What about the EC50 (SARS-CoV-2 [2]; read-out: Vero-E6 EC50) of the same compound?
Answer: 145 µM

Question: Which “PLD EC50 µM” value (Vero-E6 cells) does the source give for `CSc1ccccc1Nc1nc(N2CCNCC2)nc2c(NCC3CC3)ncnc12` [KHK-IN-1, reference compound] here?
Answer: toxic

Question: What about the “PLD Effect in % 5 µM” value (Vero-E6 cells; 5 µM) of the same compound?
Answer: toxic

Question: What about the “PLD Effect in % 10 µM” value (Vero-E6 cells; 10 µM) of the same compound?
Answer: toxic

Question: And the “PLD Effect in % 20 µM” value (Vero-E6 cells; 20 µM)?
Answer: toxic

Question: And the “CaCo2 CPE inhibition %” value (SARS-CoV-2 [1])?
Answer: toxic

Question: And the “CaCo2 EC50 µM” value (SARS-CoV-2 [1])?
Answer: toxic

Question: What about the “Vero-E6 CPE inhibition %” value (SARS-CoV-2 [2]) of the same compound?
Answer: toxic

Question: What about the “Vero-E6 EC50 µM” value (SARS-CoV-2 [2]) of the same compound?
Answer: toxic

Question: For `CN(C)C/C=C/C(=O)Nc1cc2c(Nc3ccc(F)c(Cl)c3)ncnc2cc1O[C@H]1CCOC1` [Afatinib, reference compound], which activation at 5 µM (Vero-E6 cells; [4]) is on record?
Answer: 129%

Question: What about the activation at 10 µM (Vero-E6 cells; [5]) of the same compound?
Answer: 249%

Question: What about the activation at 20 µM (Vero-E6 cells; [6]) of the same compound?
Answer: 146%

Question: And the “CaCo2 CPE inhibition %” value (SARS-CoV-2 [1])?
Answer: 60.16%

Question: What about the “Vero-E6 CPE inhibition %” value (SARS-CoV-2 [2]) of the same compound?
Answer: -0.39%

Question: Which “PLD Effect in % 5 µM” value (Vero-E6 cells; 5 µM) does the source give for `COc1ccc(CCN(C)CCCOc2ccc(S(=O)(=O)c3c(C(C)C)c4ccccc4n3C)cc2)cc1OC` [SR-33805 oxalate, reference compound] here?
Answer: 54.44%

Question: What about the “PLD Effect in % 10 µM” value (Vero-E6 cells; 10 µM) of the same compound?
Answer: 86.07%

Question: And the “PLD Effect in % 20 µM” value (Vero-E6 cells; 20 µM)?
Answer: 137.08%

Question: What about the EC50 (Vero-E6 cells; read-out: PLD EC50) of the same compound?
Answer: 9.26 µM

Question: What about the “CaCo2 CPE inhibition %” value (SARS-CoV-2 [1]) of the same compound?
Answer: 67.72%

Question: What about the “Vero-E6 CPE inhibition %” value (SARS-CoV-2 [2]) of the same compound?
Answer: 0.02

Question: With `O=C(c1ccc(F)c(F)c1Nc1ccc(I)cc1F)N1CC(O)([C@@H]2CCCCN2)C1` [Cobimetinib, reference compound] as the compound, how does the activation at 5 µM (Vero-E6 cells; [4]) read?
Answer: 112%

Question: And the activation at 10 µM (Vero-E6 cells; [5])?
Answer: 135%

Question: And the activation at 20 µM (Vero-E6 cells; [6])?
Answer: 133%

Question: What about the EC50 (Vero-E6 cells; [8]) of the same compound?
Answer: 1.34 µM

Question: And the “CaCo2 CPE inhibition %” value (SARS-CoV-2 [1])?
Answer: 61.58%

Question: And the “Vero-E6 CPE inhibition %” value (SARS-CoV-2 [2])?
Answer: -0.31%

Question: Which “PLD Effect in % 5 µM” value (Vero-E6 cells; 5 µM) does the source give for `c1cc2c(cc1C1CCCCC1)c1c3n2CCNC3CCC1` (centres unmarked) [tetrindole, reference compound] here?
Answer: 133.51%

Question: What about the “PLD Effect in % 10 µM” value (Vero-E6 cells; 10 µM) of the same compound?
Answer: 133.70%

Question: What about the “PLD Effect in % 20 µM” value (Vero-E6 cells; 20 µM) of the same compound?
Answer: -33.00%

Question: And the EC50 (Vero-E6 cells; read-out: PLD EC50)?
Answer: 9.59 µM

Question: What about the “CaCo2 CPE inhibition %” value (SARS-CoV-2 [1]) of the same compound?
Answer: 75.19%

Question: What about the “Vero-E6 CPE inhibition %” value (SARS-CoV-2 [2]) of the same compound?
Answer: -0.34%

Question: For `CN1CCCC(n2nc(Cc3ccc(Cl)cc3)c3ccccc3c2=O)CC1` (centres unmarked) [AZELASTINE HYDROCHLORIDE], which activation at 10 µM (Vero-E6 cells; [9]) is on record?
Answer: 57.2%

Question: What about the activation at 10 µM (A549-ACE2 cells) of the same compound?
Answer: 57.3%

Question: What about the “pIC50 (value)” value [3] of the same compound?
Answer: 7.0

Question: What about the “pchembl_value (AC50)” value [3] of the same compound?
Answer: 7.62

Question: And the “pchembl_value (pIC50)” value [3]?
Answer: 7.00

Question: What about the AC50 ([3]; read-out: AC50 (value)) of the same compound?
Answer: 0.024 µM

Question: What about the IC50 [3] of the same compound?
Answer: 1 µM

Question: And the “pchembl_value (IC50)” value [3]?
Answer: 6.00

Question: Which results are given for `Cc1cccc(C)c1NC(=O)CN1CCN(CCCC(c2ccc(F)cc2)c2ccc(F)cc2)CC1` [lidoflazine, reference compound]?
Answer: activation at 10 µM (Vero-E6 cells; [9]): 52.6%; activation at 5 µM (Vero-E6 cells; [4]): 65.3%; activation at 10 µM (Vero-E6 cells; [5]): 80.2%; activation at 20 µM (Vero-E6 cells; [6]): 129%; EC50 (Vero-E6 cells; [8]): 5.51 µM; activation at 10 µM (A549-ACE2 cells): 90.9%; Vero-E6 CPE inhibition % (SARS-CoV-2 [2]): 0.5%

Question: For `Cn1ncc(Cl)c1-c1cc(C(=O)N[C@H](CN)Cc2ccc(F)c(F)c2)oc1Cl` [Uprosertib], which activation at 10 µM (Vero-E6 cells; [9]) is on record?
Answer: 82.6%

Question: What about the activation at 10 µM (A549-ACE2 cells) of the same compound?
Answer: 92%

Question: And the IC50 [3]?
Answer: 0.339 µM

Question: And the “pchembl_value (IC50)” value [3]?
Answer: 6.47

Question: For `C[C@@H](NCCCc1cccc(C(F)(F)F)c1)c1cccc2ccccc12` [AMG-073 HCl, cinacalcet hydrochloride, reference compound], which activation at 10 µM (Vero-E6 cells; [9]) is on record?
Answer: 61.8%

Question: What about the activation at 5 µM (Vero-E6 cells; [4]) of the same compound?
Answer: 70.8%

Question: And the activation at 10 µM (Vero-E6 cells; [5])?
Answer: 79.5%

Question: What about the activation at 20 µM (Vero-E6 cells; [6]) of the same compound?
Answer: 253%

Question: And the EC50 (Vero-E6 cells; [7])?
Answer: 18.6 µM

Question: What about the activation at 10 µM (A549-ACE2 cells) of the same compound?
Answer: 104%

Question: What about the “pchembl_value (AC50)” value [3] of the same compound?
Answer: 6.14

Question: What about the AC50 ([3]; read-out: AC50 (value)) of the same compound?
Answer: 0.73 µM

Question: And the “Vero-E6 CPE inhibition %” value (SARS-CoV-2 [2])?
Answer: -0.15

Question: Which activation at 10 µM (Vero-E6 cells; [9]) does the source give for `CC(C)c1cnn2c(NCc3ccccc3)cc(NCCCCCCN)nc12` [BS-181] here?
Answer: 53.6%

Question: And the activation at 10 µM (A549-ACE2 cells)?
Answer: 63.8%

Question: What about the IC50 [3] of the same compound?
Answer: 0.021 µM

Question: Which “CaCo2 CPE inhibition %” value (SARS-CoV-2 [1]) does the source give for `COc1cc(C(=O)NC2CCN(C)CC2)c(F)cc1Nc1ncc2c(n1)N(C1CCCC1)CC(F)(F)C(=O)N2C` [TAK-960, reference compound] here?
Answer: 91.64%

Question: What about the “Vero-E6 CPE inhibition %” value (SARS-CoV-2 [2]) of the same compound?
Answer: 2.67%

Question: Which activation at 5 µM (Vero-E6 cells; [10]) does the source give for `OC(c1cc(C(F)(F)F)nc2c(C(F)(F)F)cccc12)C1CCCCN1` (centres unmarked) [mefloquine hydrochloride, reference compound] here?
Answer: 102%

Question: What about the activation at 10 µM (Vero-E6 cells; [11]) of the same compound?
Answer: 188%

Question: And the activation at 20 µM (Vero-E6 cells; [12])?
Answer: 174%

Question: What about the EC50 (Vero-E6 cells; [8]) of the same compound?
Answer: 1.48 µM

Question: And the “Vero-E6 CPE inhibition %” value (SARS-CoV-2 [2])?
Answer: -0.32%

Question: Which results are given for `CCN(CCCc1ccccc1)CCCc1ccccc1` [ALVERINE CITRATE]?
Answer: activation at 10 µM (Vero-E6 cells; [9]): 58.9%; activation at 10 µM (A549-ACE2 cells): 63.7%; AC50 [3]: 0.029 µM

Question: For `O=C(CCCN1CCC2(CC1)C(=O)N(Cc1cccc(F)c1)CN2c1ccccc1)c1ccc(F)cc1` [3'-fluorobenzylspiperone, reference compound], which “PLD induction assay (active)” value (Vero-E6 cells) is on record?
Answer: active

Question: And the activation at 5 µM (Vero-E6 cells; [10])?
Answer: 61.8%

Question: What about the activation at 10 µM (Vero-E6 cells; [11]) of the same compound?
Answer: 41.3%

Question: And the activation at 20 µM (Vero-E6 cells; [12])?
Answer: 8.92%

Question: What about the EC50 (Vero-E6 cells; [8]) of the same compound?
Answer: 10.3 µM

Question: And the “CaCo2 CPE inhibition %” value (SARS-CoV-2 [1])?
Answer: 102.38

Question: And the “CaCo2 CPE assay (active)” value (SARS-CoV-2 [1]; Caco-2)?
Answer: active
